Drawing on patent US20250262201A1, “COMPOUNDS AND METHODS USEFUL FOR STABILIZING PHENYLALANINE HYDROXYLASE MUTATIONS” (Agios Pharmaceuticals, Inc., priority 2022, published 2025), this text covers AC50 for 28 compounds.

Structures are written as SMILES. Structures can show the parent of a compound that is named as a salt.

The assay has as its target T1, human PAH with the R408W mutation (Homo sapiens, UniProt P00439, R408W).
T1 construct: expressed in transfected cells
T1 sequence (P00439 1-452 R408W): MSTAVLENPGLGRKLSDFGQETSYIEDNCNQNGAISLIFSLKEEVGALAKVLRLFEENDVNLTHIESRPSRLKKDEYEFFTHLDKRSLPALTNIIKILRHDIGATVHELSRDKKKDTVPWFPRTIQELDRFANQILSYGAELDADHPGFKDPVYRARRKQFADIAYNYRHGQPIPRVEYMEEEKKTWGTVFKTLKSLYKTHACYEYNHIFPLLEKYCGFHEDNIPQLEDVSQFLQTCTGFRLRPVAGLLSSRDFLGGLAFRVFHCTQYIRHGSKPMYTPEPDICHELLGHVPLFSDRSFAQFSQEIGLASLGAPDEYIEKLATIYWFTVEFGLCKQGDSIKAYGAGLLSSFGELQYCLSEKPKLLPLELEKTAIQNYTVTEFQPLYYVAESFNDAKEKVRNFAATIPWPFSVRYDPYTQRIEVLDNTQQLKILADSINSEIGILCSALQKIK
As to the kind of experiment: Cell Based Phenylalanine Flux Assay. Particulars: A375 cells expressing human R408W PAH; 24 hrs compound incubation; 13C-Tyrosine by LC-MS; average where tested multiple times; read-out: AC50.
In the case of `c1ccc(-c2nnc(N3CCc4[nH]cnc4[C@H]3c3cc4ccccc4cn3)o2)nc1` [Example 365, (R)-2-(4-(isoquinolin-3-yl)-6,7-dihydro-1H-imidazo[4,5-c]pyridin-5(4H)-yl)-5-(pyridin-2-yl)-1,3,4-oxadiazole], the half-maximal activity concentration (AC50) – broadly, the midpoint of the concentration-response curve, whichever way the signal moves – was 500 to 1000 nM.
With `CN(C)c1nnc(C(=O)N2CCc3[nH]cnc3[C@H]2c2cc3ccccc3cn2)o1` [Example 366, (R)-(5-(dimethylamino)-1,3,4-oxadiazol-2-yl)(4-(isoquinolin-3-yl)-6,7-dihydro-1H-imidazo[4,5-c]pyridin-5(4H)-yl)methanone], the half-maximal activity concentration (AC50) was less than 500 nM.
To `CN(C)c1nnc(C(=O)N2CCc3[nH]cnc3[C@@H]2c2cc3ccccc3cn2)o1` [Example 367, (S)-(5-(dimethylamino)-1,3,4-oxadiazol-2-yl)(4-(isoquinolin-3-yl)-6,7-dihydro-1H-imidazo[4,5-c]pyridin-5(4H)-yl)methanone] belongs more than 5000 nM; to `O=C(Cc1nc(C(F)(F)F)cs1)N1CCc2[nH]cnc2[C@H]1c1cc2ccccc2cn1` [Example 368, (R)-1-(4-(isoquinolin-3-yl)-6,7-dihydro-1H-imidazo[4,5-c]pyridin-5(4H)-yl)-2-(4-(trifluoromethyl)thiazol-2-yl)ethanone], less than 500 nM.
On to `O=C(Cn1cncn1)N1CCc2[nH]cnc2[C@H]1c1cc2ccccc2cn1` [Example 369, (R)-1-(4-(isoquinolin-3-yl)-6,7-dihydro-1H-imidazo[4,5-c]pyridin-5(4H)-yl)-2-(1H-1,2,4-triazol-1-yl)ethanone], for which the AC50 was 500 to 1000 nM.
To `O=C(c1nnc(NC2CC2)o1)N1CCc2[nH]cnc2[C@H]1c1cc2ccccc2cn1` [Example 370, (R)-(5-(cyclopropylamino)-1,3,4-oxadiazol-2-yl)(4-(isoquinolin-3-yl)-6,7-dihydro-1H-imidazo[4,5-c]pyridin-5(4H)-yl)methanone] belongs 500 to 1000 nM; to `O=C(c1nnc(NC2CC2)o1)N1CCc2[nH]cnc2[C@@H]1c1cc2ccccc2cn1` [Example 371, (S)-(5-(cyclopropylamino)-1,3,4-oxadiazol-2-yl)(4-(isoquinolin-3-yl)-6,7-dihydro-1H-imidazo[4,5-c]pyridin-5(4H)-yl)methanone], more than 5000 nM; to `Cc1ncc(CC(=O)N2CCc3[nH]cnc3[C@H]2c2cc3ccccc3cn2)o1` [Example 372, (R)-1-(4-(isoquinolin-3-yl)-6,7-dihydro-1H-imidazo[4,5-c]pyridin-5(4H)-yl)-2-(2-methyloxazol-5-yl)ethanone], less than 500 nM.
Under `O=C(Cc1cncs1)N1CCc2[nH]cnc2[C@H]1c1cc2ccccc2cn1` [Example 373, (R)-1-(4-(isoquinolin-3-yl)-6,7-dihydro-1H-imidazo[4,5-c]pyridin-5(4H)-yl)-2-(thiazol-5-yl)ethanone] stands less than 500 nM.
For the compound `O=C(Cc1ccccn1)N1CCc2[nH]cnc2[C@H]1c1cc2ccccc2cn1` [Example 374, (R)-1-(4-(isoquinolin-3-yl)-6,7-dihydro-1H-imidazo[4,5-c]pyridin-5(4H)-yl)-2-(pyridin-2-yl)ethanone], the AC50 was less than 500 nM.
For the compound `O=C(Cc1cnn2ccccc12)N1CCc2[nH]cnc2[C@H]1c1cc2ccccc2cn1` [Example 375, (R)-1-(4-(isoquinolin-3-yl)-6,7-dihydro-1H-imidazo[4,5-c]pyridin-5(4H)-yl)-2-(pyrazolo[1,5-a]pyridin-3-yl)ethanone], the half-maximal activity concentration (AC50) is less than 500 nM.
Take `CC(F)(F)c1ncc(C(=O)N2CCc3[nH]cnc3[C@H]2c2cc3ccccc3cn2)s1` [Example 376, (R)-(2-(1,1-difluoroethyl)thiazol-5-yl)(4-(isoquinolin-3-yl)-6,7-dihydro-1H-imidazo[4,5-c]pyridin-5(4H)-yl)methanone hydrochloride]: the concentration at half-maximal activity (AC50) was less than 500 nM.
Consider `O=C(c1oc(-c2ccccn2)nc1C1CC1)N1CCc2[nH]cnc2[C@H]1c1cc2ccccc2cn1` [Example 377, (R)-(4-cyclopropyl-2-(pyridin-2-yl)oxazol-5-yl)(4-(isoquinolin-3-yl)-6,7-dihydro-1H-imidazo[4,5-c]pyridin-5(4H)-yl)methanone], for which the AC50 was less than 500 nM.
On to `CC(C)(O)c1nc(C2CC2)c(C(=O)N2CCc3[nH]cnc3[C@H]2c2cc3ccccc3cn2)o1` [Example 378, (R)-(4-cyclopropyl-2-(2-hydroxypropan-2-yl)oxazol-5-yl)(4-(isoquinolin-3-yl)-6,7-dihydro-1H-imidazo[4,5-c]pyridin-5(4H)-yl)methanone], for which the AC50 was less than 500 nM.
As for `C[C@H]1CN(C(=O)c2cnc(-c3ccccn3)o2)[C@H](c2cc3ccccc3cn2)c2nc[nH]c21` [Example 381, ((4R,7S)-4-(isoquinolin-3-yl)-7-methyl-6,7-dihydro-1H-imidazo[4,5-c]pyridin-5(4H)-yl)(2-(pyridin-2-yl)oxazol-5-yl)methanone], the AC50 lay in the range of 1000 to 5000 nM.
`C[C@H]1CN(C(=O)c2cnc(-c3ccccn3)o2)[C@@H](c2cc3ccccc3cn2)c2nc[nH]c21` [Example 382, ((4S,7S)-4-(isoquinolin-3-yl)-7-methyl-6,7-dihydro-1H-imidazo[4,5-c]pyridin-5(4H)-yl)(2-(pyridin-2-yl)oxazol-5-yl)methanone]: the concentration at half-maximal activity (AC50) was more than 5000 nM.
`C[C@@H]1CN(C(=O)c2cnc(-c3ccccn3)o2)[C@H](c2cc3ccccc3cn2)c2nc[nH]c21` [Example 384, ((4R,7R)-4-(isoquinolin-3-yl)-7-methyl-6,7-dihydro-1H-imidazo[4,5-c]pyridin-5(4H)-yl)(2-(pyridin-2-yl)oxazol-5-yl)methanone]: the AC50 was in the range of 1000 to 5000 nM.
Regarding `Cc1nc(C(C)(C)O)oc1C(=O)N1C[C@H](C)c2[nH]cnc2[C@H]1c1cc2ccccc2cn1` [Example 389, (2-(2-hydroxypropan-2-yl)-4-methyloxazol-5-yl)((4R,7S)-4-(isoquinolin-3-yl)-7-methyl-6,7-dihydro-1H-imidazo[4,5-c]pyridin-5(4H)-yl)methanone], the AC50 is less than 500 nM.
To `Cc1nc(C(C)(C)O)oc1C(=O)N1C[C@H](C)c2[nH]cnc2[C@@H]1c1cc2ccccc2cn1` [Example 390, (2-(2-hydroxypropan-2-yl)-4-methyloxazol-5-yl)((4S,7S)-4-(isoquinolin-3-yl)-7-methyl-6,7-dihydro-1H-imidazo[4,5-c]pyridin-5(4H)-yl)methanone] belongs more than 5000 nM; to `Cc1nc(C(C)(C)O)oc1C(=O)N1C[C@@H](C)c2[nH]cnc2[C@H]1c1cc2ccccc2cn1` [Example 392, (2-(2-hydroxypropan-2-yl)-4-methyloxazol-5-yl)((4R,7R)-4-(isoquinolin-3-yl)-7-methyl-6,7-dihydro-1H-imidazo[4,5-c]pyridin-5(4H)-yl)methanone], 500 to 1000 nM; to `COCc1ncc(C(=O)N2CCc3[nH]cnc3[C@H]2c2cc3ccccc3cn2)s1` [Example 393, (R)-(4-(isoquinolin-3-yl)-6,7-dihydro-1H-imidazo[4,5-c]pyridin-5(4H)-yl)(2-(methoxymethyl)thiazol-5-yl)methanone], 500 to 1000 nM.
As to `COCc1ncc(C(=O)N2CCc3[nH]cnc3[C@H]2c2cc3ccccc3cn2)o1` [Example 394, (R)-(4-(isoquinolin-3-yl)-6,7-dihydro-1H-imidazo[4,5-c]pyridin-5(4H)-yl)(2-(methoxymethyl)oxazol-5-yl)methanone], the AC50 was 500 to 1000 nM.
On to `C[C@H]1CN(C(=O)c2cnc(C(C)(C)O)o2)[C@H](c2cc3ccccc3cn2)c2nc[nH]c21` [Example 395, (2-(2-hydroxypropan-2-yl)oxazol-5-yl)((4R,7S)-4-(isoquinolin-3-yl)-7-methyl-6,7-dihydro-1H-imidazo[4,5-c]pyridin-5(4H)-yl)methanone], for which the concentration at half-maximal activity (AC50) lay within 500 to 1000 nM.
As to `C[C@H]1CN(C(=O)c2cnc(C(C)(C)O)o2)[C@@H](c2cc3ccccc3cn2)c2nc[nH]c21` [Example 396, (2-(2-hydroxypropan-2-yl)oxazol-5-yl)((4S,7S)-4-(isoquinolin-3-yl)-7-methyl-6,7-dihydro-1H-imidazo[4,5-c]pyridin-5(4H)-yl)methanone], the AC50 was 1000 to 5000 nM.
To `C[C@@H]1CN(C(=O)c2cnc(C(C)(C)O)o2)[C@H](c2cc3ccccc3cn2)c2nc[nH]c21` [Example 398, (2-(2-hydroxypropan-2-yl)oxazol-5-yl)((4R,7R)-4-(isoquinolin-3-yl)-7-methyl-6,7-dihydro-1H-imidazo[4,5-c]pyridin-5(4H)-yl)methanone] belongs 1000 to 5000 nM.
On to `C[C@H]1CN(C(=O)c2oc(C(C)(C)O)nc2C2CC2)[C@H](c2cc3ccccc3cn2)c2nc[nH]c21` [Example 399, (4-cyclopropyl-2-(2-hydroxypropan-2-yl)oxazol-5-yl)((4R,7S)-4-(isoquinolin-3-yl)-7-methyl-6,7-dihydro-1H-imidazo[4,5-c]pyridin-5(4H)-yl)methanone], for which the AC50 is less than 500 nM.
As to `C[C@H]1CN(C(=O)c2oc(C(C)(C)O)nc2C2CC2)[C@@H](c2cc3ccccc3cn2)c2nc[nH]c21` [Example 400, (4-cyclopropyl-2-(2-hydroxypropan-2-yl)oxazol-5-yl)((4S,7S)-4-(isoquinolin-3-yl)-7-methyl-6,7-dihydro-1H-imidazo[4,5-c]pyridin-5(4H)-yl)methanone], the concentration at half-maximal activity (AC50) lay in the range of 1000 to 5000 nM.
With `C[C@@H]1CN(C(=O)c2oc(C(C)(C)O)nc2C2CC2)[C@@H](c2cc3ccccc3cn2)c2nc[nH]c21` [Example 401, (4-cyclopropyl-2-(2-hydroxypropan-2-yl)oxazol-5-yl)((4S,7R)-4-(isoquinolin-3-yl)-7-methyl-6,7-dihydro-1H-imidazo[4,5-c]pyridin-5(4H)-yl)methanone], the AC50 was 1000 to 5000 nM.
